Key:
[1] = storage stability of RTX dissolved in ethanol with or without protective gas; format: physicochemical
Experimental: Under these circumstances a loss of the RTX dissolved in ethanol occurs, on the order of magnitude of 10% in 3 months. However, if the RTX is dissolved together with argon in ethanol or in other body-compatible solvents, the loss at ambient temperature remains very low. As described in further detail below, RTX in the resiniferatoxin solution according to the invention even loses its undesired tendency to cling to polymeric surfaces.

[2] = loss of RTX on contact with polymer (polypropylene) syringe; format: physicochemical; conditions: diluted ready-for-use solution (buffer solution and hyaluronic acid), kept in polypropylene syringe for 10 minutes
From the text: An additional positive property of the resiniferatoxin solution according to the invention is the fact that the substance is stabilized even in a diluted, ready-for-use solution (i.e. diluted with a buffer solution and hyaluronic acid), so that it can also be used in combination with commercial, polymer plastic syringes which are usually produced from polypropylene, polyethylene, polyurethane and other materials. To date, it has been considered absolutely necessary for the RTX solution not to come in contact with the polymer, because it binds immediately to it.

## C=C(C)[C@]12C[C@@H](C)[C@@]34O[C@](Cc5ccccc5)(O[C@@H]1[C@@H]3C=C(COC(=O)Cc1ccc(O)c(OC)c1)C[C@]1(O)C(=O)C(C)=C[C@@H]41)O2 [RTX, Resiniferatoxin]
[1]; RTX dissolved in ethanol at 5° C. with 0.07 wt% argon, second measurement series
  RTX content (stability of the dissolved RTX) over months: 100%
[1]; RTX dissolved in ethanol at 5° C. without additional protective gas (argon), first measurement series
  RTX content (stability of the dissolved RTX) over months: continuous decrease
[1]; RTX dissolved in ethanol at 25° C. with 0.07 wt % argon, third measurement series
  RTX content (stability of the dissolved RTX) over months: 100%
[1]; RTX dissolved together with argon in ethanol or other body-compatible solvents, ambient temperature
  loss of RTX at ambient temperature: very low
[1]; frozen RTX stored under protective gas (argon), then dissolved with ethanol, in 3 months
  loss of the RTX dissolved in ethanol: ~10%
[2]
  loss of RTX in polypropylene syringe: without measurable loss

Reference: patent publication US20150190509A1, “RESIN[…]” (MESTEX AG, priority 2012, published 2015)
